Laboratory results: PMC12250302, “Synthesis, Antimicrobial Activities, and Model of Action of Novel Tetralone Derivatives Containing Aminoguanidinium Moiety” (International Journal of Molecular Sciences, 2025)
≈ marks a conversion by molar mass, not a printed value.

Columns and labels:
E. faecium ATCC 35667 = assay: MIC and MBC testing, broth microdilution; format: cell-based, Enterococcus faecium; settings: Enterococcus faecium, ATCC35667, E. faecium ATCC 35667
How it was run: (§1)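 Bacteria are grown in MH broth to log phase, diluted to 1 × 10^6 CFU/mL, then added to doubling dilutions of compound. After 18 h incubation at 37 °C, the lowest concentration lacking visible growth is recorded as MIC. Each concentration is run in triplicate.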

MRSA-2 [1] = format: cell-based, Staphylococcus aureus; settings: not told
Procedure: MRSA-2 bacterial precipitates in the logarithmic growth phase were collected by centrifugation, washed, and resuspended in PBS to a density of 1 × 10^6 CFU/mL. PI (10 μM, 40 μL) was added to a black 96-well plate along with 150 μL of bacterial suspension. After an incubation period of 30 min, fluorescence was detected at excitation wavelengths of 535 nm and emission wavelengths of 617 nm at 5 min intervals until a stable state was reached.

A. baumannii ATCC 19606 = assay: MIC and MBC testing, broth microdilution; format: cell-based, Acinetobacter baumannii; settings: Acinetobacter baumannii
How it was run: as §1

[2] = tested on: K. pneumoniae ATCC 700603; assay: MIC and MBC testing, broth microdilution; format: cell-based, Klebsiella pneumoniae; settings: Klebsiella pneumoniae
How it was run: as §1

S. aureus ATCC 29213 = assay: MIC and MBC testing, broth microdilution; format: cell-based, Staphylococcus aureus; settings: Staphylococcus aureus, ATCC29213, S. aureus ATCC 29213
How it was run: as §1

MRSA-2 [3] = assay: Fluorescence microscopy assay (DAPI/PI); format: cell-based, Staphylococcus aureus; settings: vancomycin 4 µg/mL; 2D 4 and 8 μg/mL; 2 h
Procedure: MRSA-2 was cultivated to the logarithmic growth phase, then washed with PBS and resuspended in PBS until the concentration of bacterial suspension reached 1 × 10^8 CFU/mL. […] Thereafter, the samples were incubated with DAPI (10 μM) and PI (10 μM) in the dark for 15 min. The bacterial cells were then subjected to observation under a fluorescence microscope. DMSO served as the negative controls.

MRSA-2 [4] = assay: Membrane depolarization assay, DiSC3(5); format: cell-based, Staphylococcus aureus; settings: 2, 4, and 8 μg/mL
Procedure: MRSA-2 was cultivated in MH broth, with a final concentration of 1 × 10^8 CFU/mL. After centrifugation, the supernatant was discarded. The bacterial precipitate was washed thrice and resuspended with PBS. Subsequently, the bacterial resuspension (180 μL) and the DiSC5 (10 μL, 3 μM) were incubated in the dark for 30 min. The fluorescence intensity was measured at 2 min intervals for a period of 10 min. After the fluorescence intensity was stabilized, 10 μL of 2D (final concentrations of 1, 2, 4, and 8 μg/mL) was added, respectively. The fluorescence intensity was measured at 2 min intervals for a total duration of 30 min. The excitation/emission wavelength was 622/670 nm.

MIC (E. faecium ATCC 35667; 18 h, read-out: MIC): 2 mg/L (≈ 6.32 µM) | PI fluorescence intensity (inner membrane permeability) (MRSA-2 [1]): significantly enhanced | MIC (A. baumannii ATCC 19606; ATCC19606, 18 h, read-out: MIC): 4 mg/L (≈ 12.6 µM) | MIC ([2]; ATCC700603, 18 h, read-out: MIC): 16 mg/L (≈ 50.6 µM) | MIC (S. aureus ATCC 29213; 18 h, read-out: MIC): 0.5 mg/L (≈ 1.58 µM)
SMILES: [H]/N=C(\N)NN=C1CCCc2cc(OCCCCCCC)ccc21 [Compound 2D, (E)-2-(6-(heptyloxy)-3,4-dihydronaphthalen-1(2H)-ylidene)hydrazine-1-carboximidamide]
MBC (E. faecium ATCC 35667; read-out: MBC): 4 mg/L (≈ 12.6 µM) | MBC (A. baumannii ATCC 19606; ATCC19606, read-out: MBC): 16 mg/L (≈ 50.6 µM) | MBC ([2]; ATCC700603, read-out: MBC): 32 mg/L (≈ 101 µM) | MBC (S. aureus ATCC 29213; read-out: MBC): 4 mg/L (≈ 12.6 µM) | PI red fluorescence (damaged membranes) (MRSA-2 [3]): a marked tendency to emit red fluorescence | DiSC3(5) fluorescence intensity (depolarization) (MRSA-2 [4]): increased instantaneously
